Experimental data reported in patent US11834440B2, “Beta-lactam derivatives for the treatment of diseases” (Insilico Medicine IP Limited, priority 2021, dated 2023).

Biological target: QPCTL (Homo sapiens (Human), UniProt Q9NXS2)
Assay: QPCTL inhibition, SensoLyte Green Glutaminyl Cyclase Activity Assay
Assay type: biochemical
Conditions: 0.8 nM 2x enzyme solution, 45 min at 37° C., 50 mM Tris pH 8.0, 1% DMSO
Procedure: Preparation of working solution: 2×Glutaminyl Cyclase substrate was diluted in assay buffer to […]. 2×enzyme solution and QPCTL was diluted in assay buffer to 0.8 nM. Glutaminyl Cyclase Developer was diluted in assay buffer to 1×(containing 10 mM 1-Benzyl-Imidazole). Serial dilution of test compounds was performed in DMSO. The final DMSO concentration in 100 μl reaction was 1%. The assay buffer was 50 mM Tris, pH 8.0, 0.01% BSA.
Procedure: 50 μL of 2×Glutaminyl Cyclase substrate solution was added into the assay plate followed by 50 μL of 2×enzyme solution. The plate was centrifuged for 1 min at 1000 rmp. Next the plate was incubated for 45 minutes at 37° C. This was followed by the additional of 50 μL of the prepared Glutaminyl Cyclase developer and incubated for additional 30 min at 37° C. Results were read on SpectraMax Paradigm detecting with emission at Ex/Em=490 nm/520 nm.
A Z′ value was calculated for each assay plate. The Z′ value must be >0.5 or the plate was disqualified. […] Results were calculated using GraphPad Prism 7 software is used for IC50 determination.

QPCTL, sequence (Q9NXS2 whole entry, species assumed): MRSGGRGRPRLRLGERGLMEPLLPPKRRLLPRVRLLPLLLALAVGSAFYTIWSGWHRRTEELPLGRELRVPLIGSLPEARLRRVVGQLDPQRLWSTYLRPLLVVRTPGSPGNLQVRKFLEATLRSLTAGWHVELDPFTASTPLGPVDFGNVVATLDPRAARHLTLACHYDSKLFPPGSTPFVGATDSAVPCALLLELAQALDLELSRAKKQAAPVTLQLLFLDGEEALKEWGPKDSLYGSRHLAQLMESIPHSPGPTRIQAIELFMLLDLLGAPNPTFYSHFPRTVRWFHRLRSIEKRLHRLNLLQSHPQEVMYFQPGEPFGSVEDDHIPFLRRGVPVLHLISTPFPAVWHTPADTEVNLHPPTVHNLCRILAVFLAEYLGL

Compound	IC50
C[C@@H]1C(=O)N(c2ccc3[nH]cnc3c2)[C@@H]1c1c(F)cc(-c2cnn(C(F)(F)F)c2)cc1F (single isomer, unassigned) [Compound 14A]	25 to 1000 nM
C[C@H]1C(=O)N(c2ccc3[nH]cnc3c2)[C@H]1c1c(F)cc(-c2cnn(C(F)(F)F)c2)cc1F (single isomer, unassigned) [Compound 14B]	< 2 nM
Cn1cc(-c2cc(F)c([C@@H]3[C@H](O)C(=O)N3c3ccc4[nH]cnc4c3)c(F)c2)cn1 (single isomer, unassigned) [Compound 15A]	> 1000 nM
Cn1cc(-c2cc(F)c([C@H]3[C@@H](O)C(=O)N3c3ccc4[nH]cnc4c3)c(F)c2)cn1 (single isomer, unassigned) [Compound 15B]	< 2 nM
C[C@@H]1C(=O)N(c2ccc3[nH]cnc3c2)[C@@H]1c1c(F)cc(-c2cnn(C(F)F)c2)cc1F (single isomer, unassigned) [Compound 17A]	25 to 1000 nM
C[C@H]1C(=O)N(c2ccc3[nH]cnc3c2)[C@H]1c1c(F)cc(-c2cnn(C(F)F)c2)cc1F (single isomer, unassigned) [Compound 17B]	< 2 nM
O=C1[C@@H](C2CC2)[C@@H](c2c(F)cc(OCCC(F)F)cc2F)N1c1ccc2[nH]cnc2c1 (single isomer, unassigned) [Compound 18A]	> 1000 nM
O=C1[C@H](C2CC2)[C@H](c2c(F)cc(OCCC(F)F)cc2F)N1c1ccc2[nH]cnc2c1 (single isomer, unassigned) [Compound 18B]	< 2 nM
C=C1C(=O)N(c2ccc3[nH]cnc3c2)[C@@H]1c1c(F)cc(OCCC(F)F)cc1F (single isomer, unassigned) [Compound 22A]	25 to 1000 nM
C=C1C(=O)N(c2ccc3[nH]cnc3c2)[C@H]1c1c(F)cc(OCCC(F)F)cc1F (single isomer, unassigned) [Compound 22B]	< 2 nM
C[C@@H]1C(=O)N(c2ccc3[nH]cnc3c2)[C@@H]1c1c(F)cc(N2CCC(F)(F)CC2)cc1F (single isomer, unassigned) [Compound 30A]	> 1000 nM
C[C@H]1C(=O)N(c2ccc3[nH]cnc3c2)[C@H]1c1c(F)cc(N2CCC(F)(F)CC2)cc1F (single isomer, unassigned) [Compound 30B]	2 to 25 nM
C[C@@H]1C(=O)N(c2ccc3[nH]cnc3c2)[C@@H]1c1c(F)cc(OCC(C)(C)O)cc1F (single isomer, unassigned) [Compound 32A]	25 to 1000 nM
C[C@H]1C(=O)N(c2ccc3[nH]cnc3c2)[C@H]1c1c(F)cc(OCC(C)(C)O)cc1F (single isomer, unassigned) [Compound 32B]	< 2 nM
O=C1[C@@H](C2CC2)[C@@H](c2c(F)cc(-c3cnn(C(F)(F)F)c3)cc2F)N1c1ccc2[nH]cnc2c1 (single isomer, unassigned) [Compound 35A]	25 to 1000 nM
O=C1[C@H](C2CC2)[C@H](c2c(F)cc(-c3cnn(C(F)(F)F)c3)cc2F)N1c1ccc2[nH]cnc2c1 (single isomer, unassigned) [Compound 35B]	< 2 nM
O=C1[C@@H](C2COC2)[C@@H](c2c(F)cc(-c3cnn(C(F)(F)F)c3)cc2F)N1c1ccc2[nH]cnc2c1 (single isomer, unassigned) [Compound 42A]	25 to 1000 nM
O=C1[C@H](C2COC2)[C@H](c2c(F)cc(-c3cnn(C(F)(F)F)c3)cc2F)N1c1ccc2[nH]cnc2c1 (single isomer, unassigned) [Compound 42B]	< 2 nM
O=C1[C@@H](C2CC2)[C@@H](c2ccc(-c3cnn(C(F)(F)F)c3)nc2)N1c1ccc2[nH]cnc2c1 (single isomer, unassigned) [Compound 43A]	25 to 1000 nM
O=C1[C@H](C2CC2)[C@H](c2ccc(-c3cnn(C(F)(F)F)c3)nc2)N1c1ccc2[nH]cnc2c1 (single isomer, unassigned) [Compound 43B]	< 2 nM
O=C1[C@H](C2COC2)[C@H](c2c(F)cc(OCCC(F)F)cc2F)N1c1ccc2[nH]cnc2c1 (single isomer, unassigned) [Compound 44B]	< 2 nM
O=C1[C@@H](C2CC2)[C@@H](c2ccc(OCCC(F)F)nc2)N1c1ccc2[nH]cnc2c1 (single isomer, unassigned) [Compound 45A]	25 to 1000 nM
O=C1[C@H](C2CC2)[C@H](c2ccc(OCCC(F)F)nc2)N1c1ccc2[nH]cnc2c1 (single isomer, unassigned) [Compound 45B]	< 2 nM
O=C1[C@@H](C2CC2)[C@@H](c2ccc(-c3cnn(C(F)(F)F)c3)cn2)N1c1ccc2[nH]cnc2c1 (single isomer, unassigned) [Compound 46A]	25 to 1000 nM

Next, values leading:

IC50	Compound
< 2 nM	O=C1[C@H](C2CC2)[C@H](c2ccc(-c3cnn(C(F)(F)F)c3)cn2)N1c1ccc2[nH]cnc2c1 (single isomer, unassigned) [Compound 46B]
< 2 nM	O=C1[C@H](C2CC2)[C@H](c2c(F)cc(-c3ccn(C(F)(F)F)n3)cc2F)N1c1ccc2[nH]cnc2c1 (single isomer, unassigned) [Compound 47B]
2 to 25 nM	O=C1[C@@H](C2CC2)[C@@H](c2c(F)cc(-n3ccc(C(F)(F)F)n3)cc2F)N1c1ccc2[nH]cnc2c1 (single isomer, unassigned) [Compound 48A]
< 2 nM	O=C1[C@H](C2CC2)[C@H](c2c(F)cc(-n3ccc(C(F)(F)F)n3)cc2F)N1c1ccc2[nH]cnc2c1 (single isomer, unassigned) [Compound 48B]
2 to 25 nM	O=C1[C@H](C2CC2)[C@H](c2c(F)cc(-c3cn(C(F)(F)F)cn3)cc2F)N1c1ccc2[nH]cnc2c1 (single isomer, unassigned) [Compound 49B]
25 to 1000 nM	O=C1[C@@H](C2CC2)[C@@H](c2c(F)cc(-c3cn(C(F)(F)F)nn3)cc2F)N1c1ccc2[nH]cnc2c1 (single isomer, unassigned) [Compound 50A]
< 2 nM	O=C1[C@H](C2CC2)[C@H](c2c(F)cc(-c3cn(C(F)(F)F)nn3)cc2F)N1c1ccc2[nH]cnc2c1 (single isomer, unassigned) [Compound 50B]
25 to 1000 nM	CC[C@@H]1C(=O)N(c2ccc3[nH]cnc3c2)[C@@H]1c1c(F)cc(-c2cnn(C(F)(F)F)c2)cc1F (single isomer, unassigned) [Compound 51A]
< 2 nM	CC[C@H]1C(=O)N(c2ccc3[nH]cnc3c2)[C@H]1c1c(F)cc(-c2cnn(C(F)(F)F)c2)cc1F (single isomer, unassigned) [Compound 51B]
< 2 nM	O=C1[C@H](C2CC2)[C@H](c2c(F)cc(-c3ccc(C(F)(F)F)nn3)cc2F)N1c1ccc2[nH]cnc2c1 (single isomer, unassigned) [Compound 52B]
< 2 nM	O=C1[C@H](C2CC2)[C@H](c2c(F)cc(-c3cnccn3)cc2F)N1c1ccc2[nH]cnc2c1 (single isomer, unassigned) [Compound 53B]
< 2 nM	O=C1[C@H](CC(F)(F)F)[C@H](c2c(F)cc(-c3cnn(C(F)(F)F)c3)cc2F)N1c1ccc2[nH]cnc2c1 (single isomer, unassigned) [Compound 54B]
25 to 1000 nM	O=C1[C@@H](C2CC2)[C@@H](c2ccc(-c3cnn(C(F)(F)F)c3)cc2)N1c1ccc2[nH]cnc2c1 (single isomer, unassigned) [Compound 55A]
< 2 nM	O=C1[C@H](C2CC2)[C@H](c2ccc(-c3cnn(C(F)(F)F)c3)cc2)N1c1ccc2[nH]cnc2c1 (single isomer, unassigned) [Compound 55B]
25 to 1000 nM	Cc1cc(-c2cnn(C(F)(F)F)c2)ccc1[C@@H]1[C@H](C2CC2)C(=O)N1c1ccc2[nH]cnc2c1 (single isomer, unassigned) [Compound 56A]
< 2 nM	Cc1cc(-c2cnn(C(F)(F)F)c2)ccc1[C@H]1[C@@H](C2CC2)C(=O)N1c1ccc2[nH]cnc2c1 (single isomer, unassigned) [Compound 56B]
25 to 1000 nM	Cc1cc([C@@H]2[C@H](C3CC3)C(=O)N2c2ccc3[nH]cnc3c2)ccc1-c1cnn(C(F)(F)F)c1 (single isomer, unassigned) [Compound 57A]
< 2 nM	Cc1cc([C@H]2[C@@H](C3CC3)C(=O)N2c2ccc3[nH]cnc3c2)ccc1-c1cnn(C(F)(F)F)c1 (single isomer, unassigned) [Compound 57B]
< 2 nM	O=C1[C@H](C2CC2)[C@H](c2c(F)cc(-n3cc(C(F)(F)F)cn3)cc2F)N1c1ccc2[nH]cnc2c1 (single isomer, unassigned) [Compound 58B]
< 2 nM	O=C1[C@H](C2CC2)[C@H](c2c(F)cc(-n3cc(C(F)(F)F)nn3)cc2F)N1c1ccc2[nH]cnc2c1 (single isomer, unassigned) [Compound 59B]
< 2 nM	O=C1[C@H](C2CC2)[C@H](c2c(F)cc(-n3ncc(C(F)(F)F)n3)cc2F)N1c1ccc2[nH]cnc2c1 (single isomer, unassigned) [Compound 60B]
< 2 nM	O=C1[C@H](C2CC2)[C@H](c2c(F)cc(-n3cnc(C(F)(F)F)c3)cc2F)N1c1ccc2[nH]cnc2c1 (single isomer, unassigned) [Compound 61B]
< 2 nM	Cc1cc(-c2cc(F)c([C@H]3[C@@H](C4CC4)C(=O)N3c3ccc4[nH]cnc4c3)c(F)c2)on1 (single isomer, unassigned) [Compound 62B]
< 2 nM	Cc1oncc1-c1cc(F)c([C@H]2[C@@H](C3CC3)C(=O)N2c2ccc3[nH]cnc3c2)c(F)c1 (single isomer, unassigned) [Compound 63B]
2 to 25 nM	Cc1noc(C)c1-c1cc(F)c([C@H]2[C@@H](C3CC3)C(=O)N2c2ccc3[nH]cnc3c2)c(F)c1 (single isomer, unassigned) [Compound 64B]
